{"source": "patent US20250195855A1", "about": "“INGESTIBLE DEVICE FOR DELIVERY OF THERAPEUTIC AGENT TO THE GASTROINTESTINAL TRACT” (BIORA THERAPEUTICS, INC., priority 2022, published 2025)", "key": {"[1]": {"details": "40 mg bi-weekly dose; cited from earlier work"}, "[2]": {"set-up": "species or system female Yucatan swine", "details": "in vivo", "experimental": "The above externally-triggered study was also performed using semaglutide, a glucagon-like-peptide-1 (GLP-1) receptor agonist that stimulates insulin secretion and suppress glucagon release. Devices filled with ˜0.96 mg of semaglutide were administrated by intraduodenal (ID) endoscopic placement and were externally triggered in the proximal small intestine of the female Yucatan swine. Plasma samples were then collected from 0 to 240 hours post-dose. Systemic concentrations of semaglutide were measured using LC-MS-MS to evaluate the PK of semaglutide with the OBDS device via ID administration (animals 1003-ID; 1004-ID; 1005-ID; 1009-ID; 10053-ID and 1055-ID in FIG. 87) compared with the IV control (animal 1015-IV in FIG. 87).\nSeven out of eight (7/8) devices were successfully advanced through the pyloric sphincter via endoscopic placement and triggered in the proximal small intestine."}}}
{"compound": "adalimumab", "values": [{"measurement": "bioavailability, subcutaneous route over IV, estimated in human trials", "setting": "[1]", "value": 64, "unit": "%"}]}
{"compound": "CC[C@H](C)[C@H](NC(=O)[C@H](Cc1ccccc1)NC(=O)[C@H](CCC(=O)O)NC(=O)[C@H](CCCCNC(=O)COCCOCCNC(=O)COCCOCCNC(=O)CC[C@H](NC(=O)CCCCCCCCCCCCCCCCC(=O)O)C(=O)O)NC(=O)[C@H](C)NC(=O)[C@H](C)NC(=O)[C@H](CCC(N)=O)NC(=O)CNC(=O)[C@H](CCC(=O)O)NC(=O)[C@H](CC(C)C)NC(=O)[C@H](Cc1ccc(O)cc1)NC(=O)[C@H](CO)NC(=O)[C@H](CO)NC(=O)[C@@H](NC(=O)[C@H](CC(=O)O)NC(=O)[C@H](CO)NC(=O)[C@@H](NC(=O)[C@H](Cc1ccccc1)NC(=O)[C@@H](NC(=O)CNC(=O)[C@H](CCC(=O)O)NC(=O)C(C)(C)NC(=O)[C@@H](N)Cc1cnc[nH]1)[C@@H](C)O)[C@@H](C)O)C(C)C)C(=O)N[C@@H](C)C(=O)N[C@@H](Cc1c[nH]c2ccccc12)C(=O)N[C@@H](CC(C)C)C(=O)N[C@H](C(=O)N[C@@H](CCCNC(=N)N)C(=O)NCC(=O)N[C@@H](CCCNC(=N)N)C(=O)NCC(=O)O)C(C)C", "note": "[semaglutide]", "values": [{"measurement": "clinical signs before or after dosing", "setting": "[2]", "value": "No significant clinical signs were observed"}, {"measurement": "detectable drug levels up to (post-dosing)", "setting": "[2]", "value": "up to 10 days"}]}
